Results reported in PubChem BioAssay (NCI).
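The concentration for 50% growth inhibition is given as GI50. The concentration for full growth arrest is given as TGI.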

Experiments:
Assay in all cases: NCI anticancer screen, dose series, 384-well format; in the data active = GI50 below about 0.43 µM; inactive = the rest
[1] = system: 786-0 renal
[2] = system: A498 renal
[3] = system: A549 NSCLC
[4] = system: ACHN renal
[5] = system: CAKI-1 renal
[6] = system: CCRF-CEM leukemia
[7] = system: COLO 205 colon
[8] = system: DU-145 prostate
[9] = system: HCC-2998 colon
[10] = system: HCT-116 colon
[11] = system: HCT-15 colon
[12] = system: HL-60(TB) leukemia
[13] = system: HOP-62 NSCLC
[14] = system: HOP-92 NSCLC
[15] = system: HT29 colon
[16] = system: IGROV1 ovarian
[17] = system: K-562 leukemia
[18] = system: KM12 colon
[19] = system: LOX IMVI melanoma
[20] = system: M14 melanoma
[21] = system: MALME-3M melanoma
[22] = system: MCF7 breast
[23] = system: MDA-MB-435 melanoma
[24] = system: MDA-MB-468 breast
[25] = system: MOLT-4 leukemia
[26] = system: NCI-H226 lung
[27] = system: NCI-H23 lung
[28] = system: NCI-H322M lung
[29] = system: NCI-H460 NSCLC
[30] = system: NCI-H522 lung
[31] = system: NCI/ADR-RES ovarian
[32] = system: OVCAR-3 ovarian
[33] = system: OVCAR-4 ovarian
[34] = system: OVCAR-5 ovarian
[35] = system: OVCAR-8 ovarian
[36] = system: PC-3 prostate
[37] = system: RPMI-8226 leukemia
[38] = system: RXF 393 renal
[39] = system: SF-268 CNS
[40] = system: SF-295 CNS
[41] = system: SF-539 CNS
[42] = system: SK-MEL-2 melanoma
[43] = system: SK-MEL-28 melanoma
[44] = system: SK-MEL-5 melanoma
[45] = system: SK-OV-3 ovarian
[46] = system: SN12C renal
[47] = system: SNB-19 CNS
[48] = system: SR leukemia
[49] = system: SW-620 colon
[50] = system: T-47D breast
[51] = system: TK-10 renal
[52] = system: U251 glioblastoma
[53] = system: UACC-257 melanoma
[54] = system: UACC-62 melanoma
[55] = system: UO-31 renal
[56] = system: BT-549 breast
[57] = system: EKVX NSCLC
[58] = system: HS 578T breast
[59] = system: MDA-MB-231 breast
[60] = system: SNB-75 CNS

CC[C@H](NC(=O)[C@H](C)NC)C(=O)N1C[C@@H](O)C[C@H]1Cc1c(-c2[nH]c3cc(F)ccc3c2C[C@@H]2C[C@H](O)CN2C(=O)[C@H](CC)NC(=O)[C@H](C)NC)[nH]c2cc(F)ccc12
inactive: GI50 [1] > 100 µM | GI50 [2] > 100 µM | GI50 [3] > 100 µM | GI50 [4] > 100 µM | GI50 [5] > 100 µM | GI50 [7] 37 µM | GI50 [8] 24.2 µM | GI50 [9] 16.6 µM | GI50 [10] 35 µM | GI50 [11] > 100 µM | GI50 [13] 0.555 µM | GI50 [14] 0.785 µM | GI50 [15] 16.4 µM | GI50 [16] > 100 µM | GI50 [17] 21.9 µM | GI50 [18] 23.8 µM | GI50 [19] 20.1 µM | GI50 [20] > 100 µM | GI50 [22] 15.1 µM | GI50 [25] 16.4 µM | GI50 [26] > 100 µM | GI50 [28] > 100 µM | GI50 [29] 18 µM | GI50 [31] > 100 µM | GI50 [32] 17.9 µM | GI50 [34] > 100 µM | GI50 [35] 17 µM | GI50 [36] 63 µM | GI50 [39] 28.1 µM | GI50 [40] 82 µM | GI50 [41] 14.6 µM | GI50 [43] 86.3 µM | GI50 [46] > 100 µM | GI50 [47] > 100 µM | GI50 [48] 3.4 µM | GI50 [49] 57 µM | GI50 [50] > 100 µM | GI50 [51] > 100 µM | GI50 [52] 18 µM | GI50 [53] 20 µM | GI50 [54] > 100 µM | GI50 [55] > 100 µM
0.132 µM: TGI [21]
69.3 µM: TGI [53]
13.1 µM: TGI [27]
90.6 µM: TGI [39]
19.5 µM: TGI [48]
0.637 µM: TGI [24]
31.4 µM: TGI [22]
35.7 µM: TGI [52]
0.438 µM: TGI [44]
16.8 µM: TGI [6]
12.9 µM: TGI [30]
38.1 µM: TGI [29]
50.7 µM: TGI [17]
< 0.01 µM: TGI [12] | TGI [33] | TGI [42] | TGI [45]
> 100 µM: TGI [1] | TGI [2] | TGI [3] | TGI [4] | TGI [5] | TGI [7] | TGI [8] | TGI [10] | TGI [11] | TGI [16] | TGI [20] | TGI [23] | TGI [26] | TGI [28] | TGI [31] | TGI [32] | TGI [34] | TGI [35] | TGI [36] | TGI [40] | TGI [43] | TGI [46] | TGI [47] | TGI [49] | TGI [50] | TGI [51] | TGI [54] | TGI [55]
39.8 µM: TGI [15]
74.5 µM: TGI [18]
8.66 µM: TGI [13]
0.896 µM: TGI [37]
35.9 µM: TGI [19]
32.5 µM: TGI [41]
30.2 µM: TGI [25]
active: GI50 [6] 0.028 µM | GI50 [12] < 0.01 µM | GI50 [21] 0.0143 µM | GI50 [23] 0.0982 µM | GI50 [24] < 0.01 µM | GI50 [27] 0.0611 µM | GI50 [30] 0.0544 µM | GI50 [33] < 0.01 µM | GI50 [37] 0.102 µM | GI50 [38] < 0.01 µM | GI50 [42] < 0.01 µM | GI50 [44] 0.112 µM | GI50 [45] < 0.01 µM
0.0829 µM: TGI [38]
13.5 µM: TGI [14]
49.8 µM: TGI [9]

O=c1ccn(C2OC(CO)C(O)C2F)c(=O)[nH]1 (configuration not stated)
inactive: GI50 [1] > 100 µM | GI50 [2] > 100 µM | GI50 [3] > 100 µM | GI50 [4] > 100 µM | GI50 [56] > 100 µM | GI50 [5] > 100 µM | GI50 [6] 37.3 µM | GI50 [7] > 100 µM | GI50 [8] > 100 µM | GI50 [57] > 100 µM | GI50 [9] > 100 µM | GI50 [11] > 100 µM | GI50 [12] > 100 µM | GI50 [13] > 100 µM | GI50 [14] > 100 µM | GI50 [58] > 100 µM | GI50 [15] > 100 µM | GI50 [16] > 100 µM | GI50 [18] > 100 µM | GI50 [20] > 100 µM | GI50 [21] > 100 µM | GI50 [22] > 100 µM | GI50 [59] > 100 µM | GI50 [23] > 100 µM | GI50 [24] > 100 µM | GI50 [25] 53.1 µM | GI50 [26] > 100 µM | GI50 [27] > 100 µM | GI50 [28] > 100 µM | GI50 [29] > 100 µM | GI50 [30] > 100 µM | GI50 [31] > 100 µM | GI50 [32] > 100 µM | GI50 [33] > 100 µM | GI50 [34] > 100 µM | GI50 [35] > 100 µM | GI50 [36] > 100 µM | GI50 [37] > 100 µM | GI50 [38] > 100 µM | GI50 [39] > 100 µM | GI50 [40] > 100 µM | GI50 [41] > 100 µM | GI50 [42] > 100 µM | GI50 [43] > 100 µM | GI50 [44] > 100 µM | GI50 [45] > 100 µM | GI50 [46] > 100 µM | GI50 [47] > 100 µM | GI50 [60] > 100 µM | GI50 [48] > 100 µM | GI50 [49] > 100 µM | GI50 [50] > 100 µM | GI50 [51] > 100 µM | GI50 [52] > 100 µM | GI50 [53] > 100 µM | GI50 [54] > 100 µM
> 100 µM: TGI [1] | TGI [2] | TGI [3] | TGI [4] | TGI [56] | TGI [5] | TGI [6] | TGI [7] | TGI [8] | TGI [57] | TGI [9] | TGI [11] | TGI [12] | TGI [13] | TGI [14] | TGI [58] | TGI [15] | TGI [16] | TGI [18] | TGI [20] | TGI [21] | TGI [22] | TGI [59] | TGI [23] | TGI [24] | TGI [25] | TGI [26] | TGI [27] | TGI [28] | TGI [29] | TGI [30] | TGI [31] | TGI [32] | TGI [33] | TGI [34] | TGI [35] | TGI [36] | TGI [37] | TGI [38] | TGI [39] | TGI [40] | TGI [41] | TGI [42] | TGI [43] | TGI [44] | TGI [45] | TGI [46] | TGI [47] | TGI [60] | TGI [48] | TGI [49] | TGI [50] | TGI [51] | TGI [52] | TGI [53] | TGI [54]
